Measurements from article PMC6037002, “Drug targeting to decrease cardiotoxicity – determination of the cytotoxic effect of GnRH-based conjugates containing doxorubicin, daunorubicin and methotrexate on human cardiomyocytes and endothelial cells” (Beilstein Journal of Organic Chemistry, 2018).
Where two headings read alike, the source gives them in different places.

How the values were obtained:
[1] = test system: human umbilical vein endothelial cells (HUVEC); assay: Impedimetric measurement (xCELLigence SP), delta slope, HUVEC; conditions: for delta slope (DS), short-term / delta slope (DS), long-term: HUVEC, three parallels; for delta slope (DS), short-term: 0–2 h; for delta slope (DS), long-term: 0–72 h; for cytotoxic effect on HUVEC, result in words: long-term (0–72 h), 10^−8–10^−6 mol/L, impedimetry, one-way ANOVA
Text: (§1) The main objective of the study reported here was to evaluate the in vitro cardiotoxic effects (as undesired side effects) of […] GnRH-III-based conjugates containing doxorubicin, daunorubicin and methotrexate on two essential target cells of cardiovascular diseases: vascular endothelial cells and cardiomyocytes. The rate of cytotoxicity (antitumor effect) vs cardiotoxicity (toxic effects on cardiomyocytes and vascular endothelium) is an important factor for efficient drug development for targeted tumor therapy with minimized side effects. The technique used in this work – impedimetry – is a dedicated one for real-time monitoring of cells to distinguish short-term (0–2 hours) and long-term (0–72 hours) effects elicited by the drug or carrier–drug conjugates. The basic theory of impedimetry is that proliferation/viability of cells is well detectable by monitoring of the electric impedance (Z) in an AC environment, due to the electric insulator character of intact surface membranes composed of the phospholipid bilayer. […] While cell physiological responses of short-term exposures result in characteristic changes of cell morphology (e.g., spreading), long-term effects characteristically influence in particular the proliferation of cells, and therefore the cytotoxic effects. The presented dimensionless values of delta slope (DS) measure the difference between the slope of the curve corresponding to the treatment and that of the control curve in impedimetric recordings, the negative signs refer to the relative values to the identical control.
(§2) Experimental part – Cellular samples
(§3) In the present study, GnRH conjugates containing anti-tumour drugs (e.g., daunorubicin, doxorubicin) were investigated in order to evaluate whether the conjugates exert a decrease cardiotoxic effect compared to that of the free drugs. The cardiac myocytes and the vascular endothelium cells are the most frequently detected target cells of antitumor compounds and they are employed in our study. Human umbilical vein endothelial cells (HUVEC; Promocell, Biomedica, Wien, Austria) were cultured in Endothelial Cell Growth Medium with Endothelial Cell Growth Supplement Mix (Promocell, Biomedica, Wien, Austria) and 100 µg/mL penicillin/streptomycin. Primary human cardiac myocytes (HCM; Promocell, Biomedica, Wien, Austria) were cultured in Myocyte Growth Medium (Promocell, Biomedica, Wien, Austria).
(§4) Impedimetric measurements
(§5) The xCELLigence SP system was used for impedimetric measurements. The bottom of the wells of a 96-well E-plate is installed with a golden electrode array that constitutes the adhesion surface. Adhering cells – acting as insulators – change the electric impedance measured on the electrodes. The measured impedance change is in direct correlation with the number of adhering cells and the extent of adhesion. The results of impedance change are given in the form of Cell Index (CI) calculated by the xCELLigence system according to the […]
(§6) where Zt is the measured impedance in a time point, Zb is the background impedance and F is an inbuilt factor (F = 15 at 10 kHz) depending on the frequency of the alternating current. The measurements took place in an incubator holding a 37 °C temperature and 5% carbon-dioxide […]
(§7) The experiments started with a measurement of baseline impedance for 1 hour. After that, the cells (10^4 cells/well) were added to the wells and allowed to adhere to the electrodes. When the adhering cells reached a balanced state in the wells, signified by the impedance curves […]
(§8) free drugs at 10−12 – 10−6 M and the conjugates at 10−8 – 10−6 M final concentrations were […]
(§9) added to the wells. The changes in impedance were measured for at least 72 hours. For each measurement three parallels were measured.
(§10) The evaluation of responses followed the previously described strategy: acute effects of compounds were evaluated as a characteristic morphology of the curves in the 0–2 hours

[2] = test system: primary human cardiac myocytes (HCM); conditions: for delta slope (DS), short-term / delta slope (DS), long-term: HCM, three parallels; for delta slope (DS), short-term: 0–2 h; for delta slope (DS), long-term: 0–72 h
Text: as §1, §2, §3, §4, §5, §6, §7, §8, §9, §10

[3] = test system: HT-29 human colon adenocarcinoma cells; conditions: MTT assay; cited from earlier work
Text: (§11) Table 1 Comparative study of cytotoxic effects and cardiotoxicity elicited by GnRH-based antitumor compounds (1–15) and reference substances (AN-152, Dox, Dau, Mtx). IC50 values show antitumor cytotoxic characteristics of the conjugates in human breast cancer (MCF-7), human colorectal adenocarcinoma (HT-29) and human acute monocytic leukemia (MM6) derived cell lines as representative tumor cells.

[4] = test system: MCF-7 human breast adenocarcinoma cells; conditions: MTT assay; cited from earlier work
Text: as §11

[5] = test system: human acute monocytic leukemia (MonoMac6) cells; conditions: cited from earlier work
Text: as §11

[6] = long-term (0–72 h), 10^−8–10^−6 mol/L (free drugs 10^−12–10^−6 mol/L), impedimetry, one-way ANOVA
[7] = grade +++/++/+/0, key not given, summary of impedimetric cytotoxicity

Compound	delta slope (DS), short-term ([1]; Table S4a, 10^-6 mol/L)	delta slope (DS), short-term ([1]; Table S4a, 10^-7 mol/L)	delta slope (DS), short-term ([1]; Table S4a, 10^-8 mol/L)	delta slope (DS), long-term ([1]; Table S4a, 10^-6 mol/L)	delta slope (DS), long-term ([1]; Table S4a, 10^-7 mol/L)	delta slope (DS), long-term ([1]; Table S4a, 10^-8 mol/L)	delta slope (DS), short-term ([2]; Table S4b, 10^-6 mol/L)	delta slope (DS), short-term ([2]; Table S4b, 10^-7 mol/L)	delta slope (DS), short-term ([2]; Table S4b, 10^-8 mol/L)	delta slope (DS), long-term ([2]; Table S4b, 10^-6 mol/L)	delta slope (DS), long-term ([2]; Table S4b, 10^-7 mol/L)	delta slope (DS), long-term ([2]; Table S4b, 10^-8 mol/L)	cytotoxic effect on HCM, result in words [2, 6]	IC50 [3] [µM]	IC50 [4] [µM]	IC50 [5] [µM]	delta slope (DS), short-term ([1]; Table S5a, 10^-6 mol/L)	delta slope (DS), short-term ([1]; Table S5a, 10^-7 mol/L)	Cardiotoxicity, HUVEC [1, 7]	cytotoxic effect on HUVEC, result in words [1]	also measured
GnRH-III(Dau=Aoa-GFLG) [conjugate 7]	0.003	-0.012	-0.002	−0.013	0.001	-0.001	0.003	-0.001	-0.001	-0.002	-0.002	0.001	completely lost their cytotoxic effect	22.5 ± 1.7	3.9 ± 1.2	0.894 ± 0.25					
[^4Lys(Mtx)]-GnRH-III(Dau=Aoa) [conjugate 15]													none of the two investigated mixed drug–GnRH-III conjugates (13 and 15) exerted any significant cytotoxic effect	3.6 ± 1.5	5.8 ± 1.1	> 1	0.006	-0.002	0	no significant cytotoxic effect	delta slope (DS), short-term ([1]; Table S5a, 10^-8 mol/L): 0.006; delta slope (DS), long-term ([1]; Table S5a, 10^-6 mol/L): -0.001; delta slope (DS), long-term ([1]; Table S5a, 10^-7 mol/L): -0.001; delta slope (DS), long-term ([1]; Table S5a, 10^-8 mol/L): 0.003; delta slope (DS), short-term ([2]; Table S5b, 10^-6 mol/L): -0.001; delta slope (DS), short-term ([2]; Table S5b, 10^-7 mol/L): -0.002; delta slope (DS), short-term ([2]; Table S5b, 10^-8 mol/L): -0.003; delta slope (DS), long-term ([2]; Table S5b, 10^-6 mol/L): -0.001; delta slope (DS), long-term ([2]; Table S5b, 10^-7 mol/L): 0.001; delta slope (DS), long-term ([2]; Table S5b, 10^-8 mol/L): -0.001; Cardiotoxicity, HCM [2, 7]: 0
CN(Cc1cnc2nc(N)nc(N)c2n1)c1ccc(C(=O)N[C@@H](CCC(=O)O)C(=O)O)cc1 [methotrexate]														1.4 ± 0.6		0.008 ± 0.0002	0.005	0.003			Cardiotoxicity, HUVEC [1]: +; delta slope (DS), short-term ([1]; Table S1a, 10^-6 mol/L): 0.001; delta slope (DS), short-term ([1]; Table S1a, 10^-7 mol/L): 0.002; delta slope (DS), short-term ([1]; Table S1a, 10^-8 mol/L): 0.013; delta slope (DS), short-term ([1]; Table S1a, 10^-9 mol/L): 0.019; delta slope (DS), short-term ([1]; Table S1a, 10^-10 mol/L): 0.012; delta slope (DS), short-term ([1]; Table S1a, 10^-11 mol/L): 0.013; delta slope (DS), short-term ([1]; Table S1a, 10^-12 mol/L): 0.015; delta slope (DS), short-term ([1]; Table S5a, 10^-8 mol/L): -0.003; Cardiotoxicity, HCM [2]: 0; cytotoxic effect on HCM, result in words [2]: no significant effect was measured; delta slope (DS), short-term ([2]; Table S1b, 10^-6 mol/L): 0.005; delta slope (DS), short-term ([2]; Table S1b, 10^-7 mol/L): 0.001; delta slope (DS), short-term ([2]; Table S1b, 10^-8 mol/L): 0.001; delta slope (DS), short-term ([2]; Table S1b, 10^-9 mol/L): -0.001; delta slope (DS), short-term ([2]; Table S1b, 10^-10 mol/L): 0.001; delta slope (DS), short-term ([2]; Table S1b, 10^-11 mol/L): 0.001; delta slope (DS), short-term ([2]; Table S1b, 10^-12 mol/L): 0.002; delta slope (DS), short-term ([2]; Table S5b, 10^-6 mol/L): 0.001
[GnRH-III(Dau=Aoa-C)]2 [conjugate 9]	0.014	0.008	0.001	0.001	-0.001	-0.002	0.003	0.002	-0.001	-0.001	-0.001	-0.002	completely lost their cytotoxic effect		4.1 ± 0.8	1.69 ± 0.41			0	completely lost the cytotoxic effect	Cardiotoxicity, HCM [2, 7]: 0
{[^4N-MeSer]-GnRH-III(Dau=Aoa-C)}2 (disulfide) [conjugate 10, disulfide dimer based on conjugate 6]	0.017	0.011	0.008	0.004	0.002	0.001	0.001	-0.001	-0.002	−0.005	−0.003	-0.001			6.2 ± 1.5	0.783 ± 0.09			0	completely lost the cytotoxic effect	
{GnRH-III(Dau=Aoa-YRRL-C)}2 [conjugate 11]	0.014	0.002	0.022	−0.017	−0.005	0.001	-0.004	-0.001	-0.001	−0.004	-0.002	-0.001				0.42 ± 0.05					
